Our source for the MIC values is ChEMBL document CHEMBL4145497, “Discovery of 2-aminothiazolyl berberine derivatives as effectively antibacterial agents toward clinically drug-resistant Gram-negative Acinetobacter baumanii” (Eur J Med Chem, 2018).

SMILES strings stand for the structures. ≈ marks a conversion by molar mass, not a printed value.

One may read the MIC as the least concentration at which growth counts as inhibited. Low readings indicate greater potency, high ones weaker potency.

Common to all, as to format: functional
For assay [1], the system named is Staphylococcus aureus. Nature of the assay: Antibacterial activity against Staphylococcus aureus ATCC 25923 after 18 to 24 hrs by CLSI two fold serial dilution method.
For assay [2], the system named is Staphylococcus aureus. In words: Antibacterial activity against methicillin-resistant Staphylococcus aureus N315 after 18 to 24 hrs by CLSI two fold serial dilution method.
The subject of the next assay is Bacillus subtilis. In words: Antibacterial activity against Bacillus subtilis ATCC 21216 after 18 to 24 hrs by CLSI two fold serial dilution method.
In a further assay the test system is Micrococcus luteus. In words: Antibacterial activity against Micrococcus luteus ATCC 4698 after 18 to 24 hrs by CLSI two fold serial dilution method.
The next assay relates to Enterococcus faecalis. In words: Antibacterial activity against drug-resistant Enterococcus faecalis after 18 to 24 hrs by CLSI two fold serial dilution method.
The subject of assay [3] is Escherichia coli. In words: Antibacterial activity against Escherichia coli DH52 after 18 to 24 hrs by CLSI two fold serial dilution method.
The test system of assay [4] is Escherichia coli. In words: Antibacterial activity against drug-resistant Escherichia coli after 18 to 24 hrs by CLSI two fold serial dilution method.
The test system of assay [5] is Pseudomonas aeruginosa. Nature of the assay: Antibacterial activity against Pseudomonas aeruginosa ATCC 27853 after 18 to 24 hrs by CLSI two fold serial dilution method.
Assay [6] relates to Pseudomonas aeruginosa. In words: Antibacterial activity against drug-resistant Pseudomonas aeruginosa after 18 to 24 hrs by CLSI two fold serial dilution method.
For the next assay, the system named is Klebsiella pneumoniae. Nature of the assay: Antibacterial activity against drug-resistant Klebsiella pneumoniae after 18 to 24 hrs by CLSI two fold serial dilution method.
The next assay concerns Acinetobacter baumannii. In words: Antibacterial activity against drug-resistant Acinetobacter baumannii after 18 to 24 hrs by CLSI two fold serial dilution method.
In assay [7] the test system is Candida albicans. In words: Antifungal activity against Candida albicans ATCC 76615 by CLSI two fold serial dilution method.
The next assay deals with Cyberlindnera jadinii. Nature of the assay: Antifungal activity against Candida utilis ATCC 9950 by CLSI two fold serial dilution method. The conditions noted are these: Williopsis jadinii.
The test system of another assay is Pichia norvegensis. In words: Antifungal activity against Candida mycoderma ATCC 96918 by CLSI two fold serial dilution method.
In a further assay the test system is Aspergillus flavus. Nature of the assay: Antifungal activity against Aspergillus flavus ATCC 204304 by CLSI two fold serial dilution method.
For a further assay, the system named is Saccharomyces cerevisiae. Nature of the assay: Antifungal activity against Saccharomyces cerevisiae ATCC 9763 by CLSI two fold serial dilution method.
In a further assay the test system is Candida parapsilosis. In words: Antifungal activity against Candida parapsilosis ATCC 22019 by CLSI two fold serial dilution method. The conditions noted are these: Lodderomyces parapsilosis.
Assay [8] relates to Candida albicans. Nature of the assay: Antifungal activity against drug-resistant Candida albicans by CLSI two fold serial dilution method.
A further assay concerns Candida tropicalis. In words: Antifungal activity against drug-resistant Candida tropicalis by CLSI two fold serial dilution method.
Another assay has as its system Aspergillus fumigatus. Nature of the assay: Antifungal activity against drug-resistant Aspergillus fumigatus by CLSI two fold serial dilution method.

Take `COc1cc(/C=N/NC(N)=S)c2c(c1OCc1ccccc1F)CN1CCc3cc4c(cc3C1C2)OCO4` (stereo not given): the MIC is 30 µM (≈ 16 µg/mL) in the assay on Staphylococcus aureus [1]; 30 µM (≈ 16 µg/mL) with Staphylococcus aureus [2]; 240 µM (≈ 128 µg/mL) against Bacillus subtilis; 240 µM (≈ 128 µg/mL) with Micrococcus luteus; 240 µM (≈ 128 µg/mL) with Enterococcus faecalis; 240 µM (≈ 128 µg/mL) against Escherichia coli [3]. The MIC against Escherichia coli [4] is 240 µM (≈ 128 µg/mL); with Pseudomonas aeruginosa [5] it was 480 µM (≈ 257 µg/mL); against Pseudomonas aeruginosa [6], 480 µM (≈ 257 µg/mL); against Klebsiella pneumoniae, 480 µM (≈ 257 µg/mL); in the assay with Acinetobacter baumannii, 4 µM (≈ 2.14 µg/mL); against Candida albicans [7], 480 µM (≈ 257 µg/mL). For the same compound, the MIC against Cyberlindnera jadinii turned out to be 480 µM (≈ 257 µg/mL); against Pichia norvegensis, 240 µM (≈ 128 µg/mL); against Aspergillus flavus it was 480 µM (≈ 257 µg/mL); with Saccharomyces cerevisiae, 960 µM (≈ 513 µg/mL); in the assay with Candida parapsilosis, 240 µM (≈ 128 µg/mL); with Candida albicans [8], 480 µM (≈ 257 µg/mL). The MIC was 120 µM (≈ 64.2 µg/mL) with Candida tropicalis and 4 µM (≈ 2.14 µg/mL) in the assay on Aspergillus fumigatus.

As for `COc1cc(/C=N/NC(N)=S)c2c(c1OCC#N)CN1CCc3cc4c(cc3C1C2)OCO4` (stereo not given), the MIC stood at 280 µM (≈ 130 µg/mL) in the assay on Staphylococcus aureus [1]; 280 µM (≈ 130 µg/mL) in the assay with Staphylococcus aureus [2]; 550 µM (≈ 256 µg/mL) against Bacillus subtilis; 280 µM (≈ 130 µg/mL) against Micrococcus luteus; 280 µM (≈ 130 µg/mL) in the assay with Enterococcus faecalis; 280 µM (≈ 130 µg/mL) in the assay with Escherichia coli [3]. Besides, the minimal inhibitory concentration (MIC) stood at 280 µM (≈ 130 µg/mL) against Escherichia coli [4]; 280 µM (≈ 130 µg/mL) in the assay on Pseudomonas aeruginosa [5]; 280 µM (≈ 130 µg/mL) in the assay on Pseudomonas aeruginosa [6]; 550 µM (≈ 256 µg/mL) in the assay on Klebsiella pneumoniae; 280 µM (≈ 130 µg/mL) in the assay with Acinetobacter baumannii; 280 µM (≈ 130 µg/mL) in the assay with Candida albicans [7]. Also, the minimal inhibitory concentration (MIC) amounted to 280 µM (≈ 130 µg/mL) in the assay on Cyberlindnera jadinii; 550 µM (≈ 256 µg/mL) in the assay with Pichia norvegensis; 280 µM (≈ 130 µg/mL) against Aspergillus flavus; 280 µM (≈ 130 µg/mL) against Saccharomyces cerevisiae; 280 µM (≈ 130 µg/mL) in the assay with Candida parapsilosis; 280 µM (≈ 130 µg/mL) with Candida albicans [8]. Further, the MIC is 280 µM (≈ 130 µg/mL) against Candida tropicalis and 70 µM (≈ 32.6 µg/mL) against Aspergillus fumigatus.

Regarding `COc1cc(/C=N/NC(N)=S)c2c(c1OCc1ccccc1)CN1CCc3cc4c(cc3C1C2)OCO4` (stereo not given), the minimum inhibitory concentration (MIC) in the assay on Staphylococcus aureus [1] came out at 120 µM (≈ 62 µg/mL); against Staphylococcus aureus [2] it was 120 µM (≈ 62 µg/mL); with Bacillus subtilis, 250 µM (≈ 129 µg/mL); in the assay with Micrococcus luteus, 250 µM (≈ 129 µg/mL); in the assay on Enterococcus faecalis it was 250 µM (≈ 129 µg/mL); against Escherichia coli [3] it was 250 µM (≈ 129 µg/mL). Besides, the MIC came out at 250 µM (≈ 129 µg/mL) against Escherichia coli [4]; 250 µM (≈ 129 µg/mL) against Pseudomonas aeruginosa [5]; 250 µM (≈ 129 µg/mL) against Pseudomonas aeruginosa [6]; 500 µM (≈ 258 µg/mL) with Klebsiella pneumoniae; 120 µM (≈ 62 µg/mL) in the assay on Acinetobacter baumannii; 250 µM (≈ 129 µg/mL) in the assay with Candida albicans [7]. Also, the MIC was found to be 250 µM (≈ 129 µg/mL) against Cyberlindnera jadinii; 500 µM (≈ 258 µg/mL) against Pichia norvegensis; 250 µM (≈ 129 µg/mL) with Aspergillus flavus; 250 µM (≈ 129 µg/mL) against Saccharomyces cerevisiae; 30 µM (≈ 15.5 µg/mL) in the assay with Candida parapsilosis; 250 µM (≈ 129 µg/mL) in the assay on Candida albicans [8]. For the same compound, the MIC is 250 µM (≈ 129 µg/mL) against Candida tropicalis and 60 µM (≈ 31 µg/mL) with Aspergillus fumigatus.

Take `CCCCCCCCCCCCOc1c(OC)cc(/C=N/NC(N)=S)c2c1CN1CCc3cc4c(cc3C1C2)OCO4` (stereo not given): the minimal inhibitory concentration (MIC) in the assay with Staphylococcus aureus [1] was 110 µM (≈ 65.4 µg/mL); in the assay with Staphylococcus aureus [2], 110 µM (≈ 65.4 µg/mL); against Bacillus subtilis, 430 µM (≈ 256 µg/mL); against Micrococcus luteus it was 110 µM (≈ 65.4 µg/mL); against Enterococcus faecalis, 220 µM (≈ 131 µg/mL); against Escherichia coli [3], 110 µM (≈ 65.4 µg/mL). In addition, the MIC worked out at 110 µM (≈ 65.4 µg/mL) with Escherichia coli [4]; 110 µM (≈ 65.4 µg/mL) against Pseudomonas aeruginosa [5]; 110 µM (≈ 65.4 µg/mL) in the assay with Pseudomonas aeruginosa [6]; 430 µM (≈ 256 µg/mL) in the assay on Klebsiella pneumoniae; 7 µM (≈ 4.16 µg/mL) against Acinetobacter baumannii; 110 µM (≈ 65.4 µg/mL) against Candida albicans [7]. Besides, the minimal inhibitory concentration (MIC) is 430 µM (≈ 256 µg/mL) with Cyberlindnera jadinii; 220 µM (≈ 131 µg/mL) in the assay on Pichia norvegensis; 430 µM (≈ 256 µg/mL) against Aspergillus flavus; 220 µM (≈ 131 µg/mL) in the assay on Saccharomyces cerevisiae; 220 µM (≈ 131 µg/mL) in the assay with Candida parapsilosis; 110 µM (≈ 65.4 µg/mL) against Candida albicans [8]. The values for the minimal inhibitory concentration (MIC) in the assay with Candida tropicalis and in the assay with Aspergillus fumigatus were 50 µM (≈ 29.7 µg/mL) and 7 µM (≈ 4.16 µg/mL), respectively.

In the case of `COc1cc(/C=N/NC(N)=S)c2c(c1OCc1ccc(Cl)c(Cl)c1)CN1CCc3cc4c(cc3C1C2)OCO4` (stereo not given), the MIC with Staphylococcus aureus [1] was 220 µM (≈ 129 µg/mL); against Staphylococcus aureus [2] it was 220 µM (≈ 129 µg/mL); in the assay with Bacillus subtilis it was 220 µM (≈ 129 µg/mL); in the assay with Micrococcus luteus, 440 µM (≈ 258 µg/mL); in the assay with Enterococcus faecalis it was 440 µM (≈ 258 µg/mL); with Escherichia coli [3] it was 110 µM (≈ 64.4 µg/mL). For the same compound, the MIC in the assay with Escherichia coli [4] was determined as 110 µM (≈ 64.4 µg/mL); against Pseudomonas aeruginosa [5], 220 µM (≈ 129 µg/mL); in the assay with Pseudomonas aeruginosa [6], 220 µM (≈ 129 µg/mL); with Klebsiella pneumoniae, 220 µM (≈ 129 µg/mL); against Acinetobacter baumannii it was 30 µM (≈ 17.6 µg/mL); with Candida albicans [7], 440 µM (≈ 258 µg/mL). Also, the MIC came out at 220 µM (≈ 129 µg/mL) in the assay on Cyberlindnera jadinii; 440 µM (≈ 258 µg/mL) in the assay on Pichia norvegensis; 440 µM (≈ 258 µg/mL) against Aspergillus flavus; 220 µM (≈ 129 µg/mL) in the assay on Saccharomyces cerevisiae; 220 µM (≈ 129 µg/mL) in the assay with Candida parapsilosis; 440 µM (≈ 258 µg/mL) in the assay on Candida albicans [8]. The minimal inhibitory concentration (MIC) against Candida tropicalis amounted to 110 µM (≈ 64.4 µg/mL); against Aspergillus fumigatus, 3 µM (≈ 1.76 µg/mL).
